Laboratory results published in ChEMBL document CHEMBL5143532, “Discovery of GCC5694A: A potent and selective sodium glucose co-transporter 2 inhibitor for the treatment of type 2 diabetes” (Bioorg Med Chem Lett, 2022).
Calls of active or inactive are those of the source. The rule behind the calls is not given here.

Assays:
[1] = biological target: T1, Sodium/glucose cotransporter 2 (Homo sapiens, UniProt P31639); experiment: Inhibition of human SGLT2 expressed in CHO cells by methyl-alpha-D-glucopyranoside assay; format: cell-based
T1 sequence (P31639 whole entry): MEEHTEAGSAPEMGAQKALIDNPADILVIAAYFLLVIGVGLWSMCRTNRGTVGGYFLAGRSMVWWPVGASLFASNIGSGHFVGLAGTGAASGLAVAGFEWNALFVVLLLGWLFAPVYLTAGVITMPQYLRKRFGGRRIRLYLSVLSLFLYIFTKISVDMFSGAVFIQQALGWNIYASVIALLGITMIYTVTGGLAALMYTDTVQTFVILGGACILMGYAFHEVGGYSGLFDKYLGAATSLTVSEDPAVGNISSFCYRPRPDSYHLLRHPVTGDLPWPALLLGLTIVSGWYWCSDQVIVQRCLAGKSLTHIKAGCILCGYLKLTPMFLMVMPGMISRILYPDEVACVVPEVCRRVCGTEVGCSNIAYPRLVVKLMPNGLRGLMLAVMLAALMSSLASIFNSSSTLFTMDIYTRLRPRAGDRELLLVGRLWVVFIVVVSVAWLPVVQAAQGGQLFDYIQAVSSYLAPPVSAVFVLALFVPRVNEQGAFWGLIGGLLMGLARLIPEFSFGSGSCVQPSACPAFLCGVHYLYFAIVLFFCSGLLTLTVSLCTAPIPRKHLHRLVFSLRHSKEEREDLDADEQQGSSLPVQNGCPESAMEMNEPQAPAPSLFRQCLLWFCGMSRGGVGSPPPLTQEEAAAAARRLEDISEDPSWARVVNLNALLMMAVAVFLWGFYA

[2] = biological target: T2, Sodium/glucose cotransporter 1 (Homo sapiens, UniProt P13866); experiment: Inhibition of human SGLT1 expressed in CHO cells by methyl-alpha-D-glucopyranoside assay; format: cell-based
T2 sequence (P13866 whole entry): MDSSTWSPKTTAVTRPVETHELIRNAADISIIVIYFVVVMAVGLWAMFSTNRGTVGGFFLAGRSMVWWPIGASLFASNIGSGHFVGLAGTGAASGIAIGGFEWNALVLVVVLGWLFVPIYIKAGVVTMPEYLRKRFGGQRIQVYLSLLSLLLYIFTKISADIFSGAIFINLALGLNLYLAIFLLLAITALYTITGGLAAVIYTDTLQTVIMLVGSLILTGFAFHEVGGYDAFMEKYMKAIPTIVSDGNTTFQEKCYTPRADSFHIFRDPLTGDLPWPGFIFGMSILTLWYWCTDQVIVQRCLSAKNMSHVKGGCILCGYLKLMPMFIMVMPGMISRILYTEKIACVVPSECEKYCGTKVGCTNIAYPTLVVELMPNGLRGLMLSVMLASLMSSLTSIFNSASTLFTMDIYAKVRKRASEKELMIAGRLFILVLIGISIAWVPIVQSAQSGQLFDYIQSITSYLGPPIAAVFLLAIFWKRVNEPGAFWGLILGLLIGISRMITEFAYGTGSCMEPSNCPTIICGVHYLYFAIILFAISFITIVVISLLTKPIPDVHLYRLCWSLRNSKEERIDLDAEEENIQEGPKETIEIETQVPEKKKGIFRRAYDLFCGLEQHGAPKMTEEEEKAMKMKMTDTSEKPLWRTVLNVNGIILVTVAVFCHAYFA

[3] = Selectivity index, ratio of IC50 for human SGLT1 expressed in CHO cells to IC50 for human SGLT2 expressed in CHO cells; format: cell-based
[4] = Metabolic stability in mouse by LC-MS/MS analysis; format: ADME; conditions: read-out: Stability
[5] = Cmax in Sprague-Dawley rat at 1 mg/kg, iv; format: ADME, organism-based; design: dose 1 mg/kg, route iv; conditions: in vivo
[6] = AUCinfinity in Sprague-Dawley rat at 1 mg/kg, iv; format: ADME, organism-based; design: time infinity, dose 1 mg/kg, route iv; conditions: in vivo
[7] = Terminal elimination half life in Sprague-Dawley rat at 1 mg/kg, iv; format: ADME, organism-based; conditions: in vivo, read-out: beta t1/2 (converted)
[8] = Tmax in Sprague-Dawley rat at 1 mg/kg, iv; format: ADME, organism-based; conditions: in vivo
[9] = AUCinfinity in Sprague-Dawley rat at 5 mg/kg, po; format: ADME, organism-based; design: time infinity, dose 5 mg/kg, route po; conditions: in vivo
[10] = Tmax in Sprague-Dawley rat at 5 mg/kg, po; format: ADME, organism-based; conditions: in vivo
[11] = Oral bioavailability in Sprague-Dawley rat at 5 mg/kg; format: ADME, organism-based; conditions: in vivo
Rattus norvegicus [12] = experiment: Increase in urinary glucose excretion in oral-dosed normal Sprague-Dawley rat; format: functional, organism-based; conditions: Urine, dose 0.1-1 mg/kg
Rattus norvegicus [13] = experiment: Antidiabetic activity in STZ-induced rat model of type 1 diabetes assessed as decrease in hemoglobin A1c level at 0.05 to 0.5 mg/kg for 5 weeks; format: functional, organism-based; conditions: dose 0.05-0.5 mg/kg
Rattus norvegicus [14] = experiment: Antidiabetic activity in STZ-induced rat model of type 1 diabetes assessed as decrease in blood glucose level at 0.05 to 0.5 mg/kg for 5 weeks; format: functional, organism-based; conditions: dose 0.05-0.5 mg/kg
Mus musculus [15] = experiment: Antidiabetic activity in type 2 diabetic db/db mouse assessed as decrease in hemoglobin A1c level at 0.05 to 0.5 mg/kg for 5 weeks; format: functional, organism-based; conditions: dose 0.05-0.5 mg/kg
Mus musculus [16] = experiment: Antidiabetic activity in type 2 diabetic db/db mouse assessed as decrease in blood glucose level at 0.05 to 0.5 mg/kg for 5 weeks; format: functional, organism-based; conditions: dose 0.05-0.5 mg/kg
[17] = Cmax in Sprague-Dawley rat at 5 mg/kg, po; format: ADME, organism-based; design: dose 5 mg/kg, route po; conditions: in vivo
[18] = Terminal elimination half life in Sprague-Dawley rat at 5 mg/kg, po; format: ADME, organism-based; conditions: in vivo, read-out: beta t1/2 (converted)

Row | IC50 [2] | half-life [4] | SMILES | Ratio IC50 [3] | other results
1 | – | – | COc1ccc(Cc2cc3c(c([C@@H]4O[C@H](CO)[C@@H](O)[C@H](O)[C@H]4O)c2)CCC3)cc1 | – | IC50 [1]: 7.44 nM
2 | 1370 nM | – | CCCc1ccc(Cc2cc([C@@H]3O[C@H](CO)[C@@H](O)[C@H](O)[C@H]3O)c3c(c2Cl)OCC3)cc1 | 1170 | –
3 | – | – | COc1ccc(Cc2cc([C@@H]3O[C@H](CO)[C@@H](O)[C@H](O)[C@H]3O)c3c(c2Br)CCC3)cc1 | 35 | –
4 | 400 nM | > 120 min | COc1ccc(Cc2cc([C@@H]3O[C@H](CO)[C@@H](O)[C@H](O)[C@H]3O)c3c(c2Cl)OCC3)cc1 | 261 | –
5 | – | 42.5 min | COc1ccc(Cc2cc([C@@H]3O[C@H](CO)[C@@H](O)[C@H](O)[C@H]3O)c3c(c2Cl)CCO3)cc1 | 20 | –
6 | 6280 nM | – | CCCOc1ccc(Cc2cc([C@@H]3O[C@H](CO)[C@@H](O)[C@H](O)[C@H]3O)c3c(c2Cl)OCC3)cc1 | 5150 | –
7 | – | 37.6 min | COc1ccc(Cc2cc([C@@H]3O[C@H](CO)[C@@H](O)[C@H](O)[C@H]3O)c3c(c2Cl)CCCO3)cc1 | 17 | –
8 | – | – | Cc1ccc(Cc2cc([C@@H]3O[C@H](CO)[C@@H](O)[C@H](O)[C@H]3O)c3c(c2Cl)OCC3)cc1 | – | IC50 [1]: 1.44 nM
9 | 2140 nM | 111 min | CCOc1ccc(Cc2cc([C@@H]3O[C@H](CO)[C@@H](O)[C@H](O)[C@H]3O)c3c(c2Cl)OCC3)cc1 | 1410 | –
10 | 556 nM | 44.5 min | CCc1ccc(Cc2cc([C@@H]3O[C@H](CO)[C@@H](O)[C@H](O)[C@H]3O)c3c(c2Cl)OCC3)cc1 | 772 | –
11 | – | – | CCOc1ccc(Cc2cc([C@@H]3O[C@H](CO)[C@@H](O)[C@H](O)[C@H]3O)ccc2Cl)cc1 [DAPAGLIFLOZIN] | – | Cmax [5]: 1300 ng/mL; AUC(0-inf) [6]: 3010 ng·h/mL; half-life [7]: 174 min; Tmax [8]: 4.8 min; AUC(0-inf) [9]: 13300 ng·h/mL; Tmax [10]: 40.2 min; bioavailability [11]: 88.4%
12 | 4940 nM | – | CC(C)c1ccc(Cc2cc([C@@H]3O[C@H](CO)[C@@H](O)[C@H](O)[C@H]3O)c3c(c2Cl)OCC3)cc1 | – | –
13 | – | 20.3 min | COc1ccc(Cc2cc([C@@H]3O[C@H](CO)[C@@H](O)[C@H](O)[C@H]3O)c3c(c2C)CCC3)cc1 | – | –
14 | – | 30.9 min | COc1ccc(Cc2cc([C@@H]3O[C@H](CO)[C@@H](O)[C@H](O)[C@H]3O)c3c(c2Cl)CCC3)cc1 | – | –
15 | – | 57 min | C=Cc1ccc(Cc2cc([C@@H]3O[C@H](CO)[C@@H](O)[C@H](O)[C@H]3O)c3c(c2Cl)OCC3)cc1 | 441 | –
16 | 9930 nM | – | OC[C@H]1O[C@@H](c2cc(Cc3ccc(C4CCCC4)cc3)c(Cl)c3c2CCO3)[C@H](O)[C@@H](O)[C@@H]1O | 8560 | –
17 | 359 nM | 103 min | OC[C@H]1O[C@@H](c2cc(Cc3ccc(C4CC4)cc3)c(Cl)c3c2CCO3)[C@H](O)[C@@H](O)[C@@H]1O [ENAVOGLIFLOZIN] | 780 | Activity (Rattus norvegicus [12]): Active; Activity (Rattus norvegicus [13]): Active; Activity (Rattus norvegicus [14]): Active; Activity (Mus musculus [15]): Active; Activity (Mus musculus [16]): Active; Cmax [5]: 3300 ng/mL; AUC(0-inf) [6]: 4180 ng·h/mL; half-life [7]: 276 min; Tmax [8]: 4.8 min; Cmax [17]: 2340 ng/mL; AUC(0-inf) [9]: 16200 ng·h/mL; half-life [18]: 294 min; Tmax [10]: 15 min; bioavailability [11]: 77.4%
